Consider five compounds from patent US8129396B2, “2-[1H-benzimidazol-2(3H)-ylidene]-2-(pyrimidin-2-yl)acetamides and 2-[benzothiazol-2(3H)-ylidene]-2-(pyrimidin-2-yl)acetamides as kinase inhibitors” (Telik, Inc., priority 2008, dated 2012).

One assay deals with T1, Aurora A kinase (Homo sapiens, UniProt O14965).
T1 construct: purchased Upstate Biotech
T1 sequence (O14965 1-403): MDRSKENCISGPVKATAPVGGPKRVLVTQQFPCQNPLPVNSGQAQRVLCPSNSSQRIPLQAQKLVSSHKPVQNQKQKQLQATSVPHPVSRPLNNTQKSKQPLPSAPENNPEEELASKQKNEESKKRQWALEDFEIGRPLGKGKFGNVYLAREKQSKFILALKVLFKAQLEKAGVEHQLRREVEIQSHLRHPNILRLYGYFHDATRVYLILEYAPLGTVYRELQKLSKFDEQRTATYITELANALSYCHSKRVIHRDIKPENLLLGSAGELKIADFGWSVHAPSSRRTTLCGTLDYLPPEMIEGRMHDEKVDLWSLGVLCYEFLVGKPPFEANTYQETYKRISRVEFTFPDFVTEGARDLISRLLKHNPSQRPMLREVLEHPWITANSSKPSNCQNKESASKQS
The assay is described as follows: Aurora A kinase assay (IMAP fluorescence polarization). Type of assay: biochemical. As to conditions: 10 μM ATP; rounded to 1 significant figure; read-out: Aur-A IC50. A digest of the protocol: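 Compounds (eight 3-fold dilutions, 2.5% DMSO final) were preincubated 5 min at room temperature with Aurora A kinase in buffer with 1 mM DTT. Reaction with 100 nM fluorescein-PKAtide and 10 μM ATP ran 45 min at room temperature, then was stopped with IMAP binding reagent; fluorescence polarization was read after 30 min.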
In general terms: Fluorescence polarisation rises when a labelled molecule tumbles more slowly, as on binding a larger partner.

The target in a further assay is T2, Aurora B kinase (Homo sapiens, UniProt Q96GD4).
T2 construct: purchased BPS Bioscience
T2 sequence (Q96GD4 whole entry): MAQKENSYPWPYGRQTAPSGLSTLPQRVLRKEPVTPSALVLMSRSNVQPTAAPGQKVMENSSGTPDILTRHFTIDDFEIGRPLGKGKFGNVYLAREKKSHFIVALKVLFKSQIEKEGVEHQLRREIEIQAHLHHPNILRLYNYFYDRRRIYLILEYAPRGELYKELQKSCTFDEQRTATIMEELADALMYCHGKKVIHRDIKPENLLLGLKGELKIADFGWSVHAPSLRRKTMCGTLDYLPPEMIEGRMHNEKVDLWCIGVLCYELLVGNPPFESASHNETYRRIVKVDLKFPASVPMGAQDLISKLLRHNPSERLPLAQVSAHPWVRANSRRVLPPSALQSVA
The assay is described as follows: Aurora B kinase assay (IMAP fluorescence polarization). It is filed as biochemical. The note with it: 10 μM ATP; rounded to 1 significant figure; read-out: Aur-B IC50. A digest of the protocol:
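Reaction started with 100 nM fluorescein-labelled PKAtide and 10 μM ATP, run 45 min at room temperature, then stopped with IMAP binding reagent (1:400). After 30 min shaking at room temperature, fluorescence polarization read; run in duplicate with solvent control.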

The target in another assay is T3, VEGFR2 kinase (Homo sapiens, UniProt P35968).
T3 construct: purchased Cell Signaling Technology
T3 sequence (P35968 20-1356): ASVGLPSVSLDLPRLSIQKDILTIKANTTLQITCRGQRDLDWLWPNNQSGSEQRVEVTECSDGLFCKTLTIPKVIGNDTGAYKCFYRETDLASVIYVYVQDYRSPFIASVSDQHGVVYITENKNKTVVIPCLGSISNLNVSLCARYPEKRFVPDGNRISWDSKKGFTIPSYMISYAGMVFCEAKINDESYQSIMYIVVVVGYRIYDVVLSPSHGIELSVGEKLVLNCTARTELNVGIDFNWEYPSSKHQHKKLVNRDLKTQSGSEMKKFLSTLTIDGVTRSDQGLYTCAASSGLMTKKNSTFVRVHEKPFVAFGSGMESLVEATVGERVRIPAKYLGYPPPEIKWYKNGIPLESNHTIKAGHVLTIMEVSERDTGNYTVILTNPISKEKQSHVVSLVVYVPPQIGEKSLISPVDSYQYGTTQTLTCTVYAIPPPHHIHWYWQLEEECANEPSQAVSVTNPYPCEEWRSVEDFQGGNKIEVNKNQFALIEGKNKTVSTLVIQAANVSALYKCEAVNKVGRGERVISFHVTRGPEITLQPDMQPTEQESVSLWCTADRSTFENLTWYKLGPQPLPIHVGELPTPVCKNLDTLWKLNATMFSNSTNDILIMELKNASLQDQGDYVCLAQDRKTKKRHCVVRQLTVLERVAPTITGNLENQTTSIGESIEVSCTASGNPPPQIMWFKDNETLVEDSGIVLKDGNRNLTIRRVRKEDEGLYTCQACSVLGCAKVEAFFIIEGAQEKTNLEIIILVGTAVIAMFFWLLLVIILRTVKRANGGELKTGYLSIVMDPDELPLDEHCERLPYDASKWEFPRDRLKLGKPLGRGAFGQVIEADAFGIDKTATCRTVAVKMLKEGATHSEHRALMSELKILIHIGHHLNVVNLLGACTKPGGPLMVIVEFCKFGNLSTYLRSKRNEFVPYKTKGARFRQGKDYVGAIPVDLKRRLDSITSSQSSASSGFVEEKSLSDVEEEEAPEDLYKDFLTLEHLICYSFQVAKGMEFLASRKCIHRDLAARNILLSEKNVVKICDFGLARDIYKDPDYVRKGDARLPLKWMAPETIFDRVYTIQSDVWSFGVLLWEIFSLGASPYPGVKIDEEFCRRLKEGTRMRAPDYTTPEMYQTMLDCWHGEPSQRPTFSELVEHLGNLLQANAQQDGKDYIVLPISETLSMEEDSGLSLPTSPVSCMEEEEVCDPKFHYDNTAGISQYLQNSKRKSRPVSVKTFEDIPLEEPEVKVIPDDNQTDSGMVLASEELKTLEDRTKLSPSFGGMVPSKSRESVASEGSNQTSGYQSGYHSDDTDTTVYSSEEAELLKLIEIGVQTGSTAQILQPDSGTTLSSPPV
The assay is described as follows: VEGFR2 kinase assay. Type of assay: biochemical. The note with it: 6 μM ATP, 1 mM MnCl2; rounded to 1 significant figure. A digest of the protocol: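 VEGFR2 phosphorylates CSKtide with 6 μM ATP and 1 mM MnCl2 for 1 hr, otherwise following the Aurora A kinase protocol. Detection by IMAP fluorescence polarization, binding reagent diluted 1:1200 in 1:1 binding buffer A/B. Run in duplicate with solvent control.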

For a further assay, the system named is p-H3 in HCT116 cells. The assay is described as follows: Histone phosphorylation (p-H3) assay. It is filed as cell-based. The note with it: Homo sapiens, HCT-116; HCT116 cells, 4 hr incubation; read-out: p-H3 IC50. A digest of the protocol:
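HCT116 cells (2.5×10^4/well, attached overnight) treated 4 h with 8-point 3-fold compound dilutions at 0.5% DMSO. Lysates dot-blotted onto nitrocellulose and probed for p-H3 with β-actin on the same membrane, fluorescent secondary antibodies, Odyssey scan; duplicate wells.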

The subject of assay [1] is HCT116 (human colon carcinoma) cells. The assay is described as follows: HCT116 cytotoxicity assay (CellTiter-Glo). As to conditions: HCT-116, 72 h, cytotoxicity, three days culture, read-out: HCT116 IC50. Type of assay: cell-based. A general note: In ATP-based viability assays light output follows the ATP content of the culture.
Assay [2] concerns HUVEC-2 (human umbilical vein endothelial cells). The assay is described as follows: HUVEC VEGF-dependent proliferation assay (BrdU). Type of assay: cell-based. As to conditions: VEGF (25 ng/mL)-dependent proliferation, read-out: HUVEC IC50. A digest of the protocol: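 HUVEC-2 cells on gelatin got serially diluted compound (0.5% DMSO final), and VEGF (25 ng/mL) was added 2 hr later. BrdU (10 μM) went in after one day, with labelling for another day. VEGF-dependent proliferation was read by BrdU detection, in triplicate.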

Assay [3] concerns HL60 (human promyelocytic leukemia) xenograft. The assay is described as follows: HL60 xenograft assay, oral administration. Type of assay: in vivo, athymic nu/nu mice. As to conditions: for inhibition of tumor growth compared to vehicle: 150 mg/Kg by gavage once/day on days 1-5 and 8-10, measured 1-2 days after last treatment. As to the method:
Male athymic nu/nu mice, 6-8 weeks old (about 20 g), were implanted subcutaneously in the right fore flank with about 1×10^7 cells of the HL60 (human promyelocytic leukemia) line that had been grown in antibiotic-free medium for at least two passages. About 6 days after tumor implantation, when the tumor weight was about 50-250 mg, the mice were assigned to treatment groups. […] […] Tumor growth inhibition was measured 1-2 days after the last day of treatment.

Assay [4] relates to HCT116 (human colon carcinoma) xenograft. The assay is described as follows: HCT116 xenograft assay, oral administration. Type of assay: in vivo, athymic nu/nu mice. As to conditions: for inhibition of tumor growth compared to vehicle: 150 mg/Kg by gavage once/day on days 1-5 and 8-12, measured 9 days after last treatment. As to the method: Male athymic nu/nu mice, 6-8 weeks old (about 20 g), were implanted subcutaneously in the right fore flank with about 1×10^7 cells of the HCT116 (human colon carcinoma) line that had been grown in antibiotic-free medium for at least two passages. About 14-21 days after tumor transplantation, when the tumor weight was about 50-250 mg, the mice were assigned to treatment groups. […] Groups of mice were treated with compounds 39A, 40A, 60A, 75A, 95A, and 117A at 150 mg/Kg by gavage once/day on days 1-5 and 8-12 from the start of treatment, with vehicle control. Tumor growth inhibition was measured 9 days after the last day of treatment.

Assay [5] has as its system HL60 (human promyelocytic leukemia) cells. The assay is described as follows: HL60 cytotoxicity assay (CellTiter-Glo). The note with it: HL-60, 72 h, cytotoxicity, three days culture, read-out: HL60 IC50. Type of assay: cell-based.
For the next assay, the target named is T4, Aurora kinase C (Homo sapiens, UniProt Q9UQB9).
T4 sequence (Q9UQB9 1-309): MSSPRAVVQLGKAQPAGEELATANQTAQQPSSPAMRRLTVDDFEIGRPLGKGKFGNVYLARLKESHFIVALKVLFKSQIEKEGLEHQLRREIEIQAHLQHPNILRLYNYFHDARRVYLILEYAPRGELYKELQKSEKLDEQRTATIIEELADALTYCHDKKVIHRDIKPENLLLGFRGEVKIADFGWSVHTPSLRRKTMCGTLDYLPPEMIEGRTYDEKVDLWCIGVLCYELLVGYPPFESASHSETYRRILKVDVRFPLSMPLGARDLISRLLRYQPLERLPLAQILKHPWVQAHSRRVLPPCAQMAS
The note with it: reported; cited from earlier work.

The structures appear in SMILES notation. A value given as a limit tells only on which side of the number the result lay.

In general, IC50 refers to the concentration that gives 50% inhibition. As to `CCN(CC)CC(=O)Nc1ccc2c(c1)N/C(=C(/C(N)=O)c1nccc(C(F)(F)F)n1)N2` [Compound 75A], the half-inhibitory concentration (IC50) on Aurora A kinase turned out to be 60 nM; on Aurora B kinase, 10 nM; at VEGFR2 kinase it was 50 nM; in the assay on p-H3 in HCT116 cells, 400 nM; in [1], 1000 nM; in [2], 200 nM. In addition, the “inhibition of tumor growth compared to vehicle” value (“inhibition … compared to vehicle” below) in assay [3] worked out at 72%; in assay [4], 60%.

In the case of `NC(=O)/C(=C1\Nc2ccc(CCn3ccnc3)cc2S1)c1nccc(C(F)(F)F)n1` [Compound 95A], the IC50 at Aurora A kinase worked out at 20 nM; on Aurora B kinase, 4 nM; on VEGFR2 kinase, 20 nM; in the assay with p-H3 in HCT116 cells, 50 nM; in assay [1], 2000 nM; in [5] it was 2000 nM. The IC50 in assay [2] was found to be 50 nM. For the same compound, the “inhibition … compared to vehicle” value in assay [3] was determined as 59%; in assay [4], 61%.

As to `Cc1nc(N)sc1-c1ccnc(Nc2ccc(N3CCOCC3)cc2)n1` [CYC116], the IC50 on Aurora kinase C was less than 100 nM.

For the compound `CCN(CC)CC(=O)N(CC)c1ccc2c(c1)N/C(=C(/C(N)=O)c1nccc(C(F)(F)F)n1)N2` [Compound 139A], the 50% inhibitory concentration (IC50) at Aurora A kinase was 20 nM; at Aurora B kinase it was 2 nM; at VEGFR2 kinase it was 30 nM; with p-H3 in HCT116 cells it was 90 nM; in assay [1] it was 30 nM; in assay [5], 40 nM. Further, the “tumor inhibition relative to vehicle” value in assay [3] (dissolved at 4 mg/mL in 0.1M sodium acetate pH5, dosing at 40 mg/mL) amounted to 65%; in assay [4] (dissolved at 4 mg/mL in 0.1M sodium acetate pH5), 46%.

With `NC(=O)C(=C1Nc2ccc(C(=O)NCCCN3CCOCC3)cc2N1)c1nccc(C(F)(F)F)n1` (single isomer, unassigned) [Compound 39A, 2-(5-{[3-(4-morpholinyl)propyl]aminocarbonyl}-1H-benzimidazol-2(3H)-ylidene)-2-(4-trifluoromethylpyrimidin-2-yl)acetamide], the concentration for half-maximal inhibition (IC50) was found to be 10 nM on Aurora A kinase; 5 nM at Aurora B kinase; 7 nM at VEGFR2 kinase; 900 nM in the assay on p-H3 in HCT116 cells; 300 nM in assay [1]; 500 nM in assay [5]. The concentration for half-maximal inhibition (IC50) in [2] was 60 nM. In addition, the “inhibition … compared to vehicle” value in assay [3] turned out to be 47%; in assay [4], 56%.
